Results: PubChem BioAssay (NCI)
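Cultured in 96-well plates, cells were exposed to test compound for 48 hours across five concentrations. Abbreviation: GI50, concentration required for 50% inhibition of growth. TGI is the concentration that stops growth completely.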

Columns and labels:
Assay in all cases: NCI anticancer screen, dose series, 48 h
786-0 renal = tested on: 786-0 renal
HS 578T breast = tested on: HS 578T breast
K-562 leukemia = tested on: K-562 leukemia
KM12 colon = tested on: KM12 colon
NCI-H226 lung = tested on: NCI-H226 lung
PC-3 prostate = tested on: PC-3 prostate
SF-268 CNS = tested on: SF-268 CNS
SNB-75 CNS = tested on: SNB-75 CNS
SW-620 colon = tested on: SW-620 colon

Compound | TGI (786-0 renal) [µM] | TGI (HS 578T breast) [µM] | TGI (K-562 leukemia) [µM] | TGI (KM12 colon) [µM] | TGI (NCI-H226 lung) [µM] | TGI (PC-3 prostate) [µM] | TGI (SF-268 CNS) [µM] | TGI (SNB-75 CNS) [µM] | TGI (SW-620 colon) [µM] | GI50 (HS 578T breast) [µM] | GI50 (K-562 leukemia) [µM] | GI50 (KM12 colon) [µM] | GI50 (NCI-H226 lung) [µM] | GI50 (PC-3 prostate) [µM] | GI50 (SF-268 CNS) [µM] | GI50 (SNB-75 CNS) [µM] | GI50 (SW-620 colon) [µM]
S=C(NCc1ccccc1)N/N=C/c1ccccn1 | > 65.3 | > 100 | > 100 | > 100 | 17.7 | > 100 | > 91.4 | 47.8 | > 61.4 | – | – | – | – | – | – | – | –
O=C1c2ccccc2-c2[nH]c3cn[nH]c(=O)c3c21 | > 100 | > 100 | > 100 | > 100 | > 100 | > 100 | > 100 | > 100 | > 100 | – | – | – | – | – | – | – | –
Cc1nc2ccc(Cl)cc2c2c1CCN2c1ccccc1 | 25.2 | 55.7 | 21.8 | 39.1 | 22 | 29.5 | 83.9 | > 100 | 63.9 | – | – | – | – | – | – | – | –
Cc1ccc(S(=O)(=O)N(CC(O)COc2ccccc2)c2ccc(F)cc2F)cc1 (stereo not given) | 31 | 39.9 | > 100 | 68.1 | 41.9 | 25.3 | 31.8 | 29.4 | 31.9 | – | – | – | – | – | – | – | –
O=C1c2ccccc2C(=O)N1c1nc(-c2ccc(Cl)cc2)cc(N2N=C(c3ccc(Br)cc3)CC2c2ccccc2)n1 (stereo not given) | > 34.1 | 20.8 | > 100 | > 63.9 | 29.8 | > 27.5 | 7.72 | – | – | – | – | – | – | – | – | – | –
O=C(c1ccco1)N(C(=S)OC12CC3CC(CC(C3)C1)C2)c1ccccc1 | 93.4 | 98 | > 100 | > 100 | > 100 | 60.3 | > 100 | > 100 | > 100 | – | – | – | – | – | – | – | –
N#Cc1nc(C#N)n(C(=O)c2ccccc2)c1NC(=O)c1ccccc1 | > 100 | > 100 | > 100 | > 100 | > 100 | > 100 | > 100 | > 100 | > 100 | – | – | – | – | – | – | – | –
Nc1nc(Cl)cc(NCC2(O)CCCC2)n1 | > 100 | > 100 | > 100 | > 100 | > 100 | > 100 | > 100 | > 100 | > 100 | – | – | – | – | – | – | – | –
O=C1CC(n2cccc2)c2c(Br)sc(Br)c21 (stereo not given) | 43.8 | > 72.3 | 64.8 | 22.8 | 42.2 | 33.9 | 31.2 | 35.1 | 41.3 | – | – | – | – | – | – | – | –
O=[N+]([O-])c1ccc(C(Nc2ccccc2)c2ccc3cccnc3c2O)cc1 (stereo not given) | 26.1 | > 71.7 | > 57.4 | > 100 | > 27.7 | > 87.2 | > 52.7 | 55.5 | > 100 | – | – | – | – | – | – | – | –
COC(=O)c1c(-c2ccc(Cl)cc2)cc2c3ccccc3n(C)c2c1C(=O)OC | > 100 | > 100 | > 100 | > 100 | > 100 | > 100 | > 100 | – | > 100 | – | – | – | – | – | – | – | –
Cc1cc2cc3c(cc2c(-c2ccc(N)cc2)n1)OCO3 | 57.4 | > 100 | 92 | > 100 | – | > 100 | 79.3 | – | > 100 | – | – | – | – | – | – | – | –
CSc1nc(NC(C)C)c2c(n1)Sc1nc3ccccc3n1C2O (stereo not given) | > 100 | 13.4 | > 100 | > 100 | – | > 100 | > 100 | 23.4 | 65.3 | – | – | – | – | – | – | – | –
CCOC(=O)C(=O)C(=O)NN(C)C1=NCCN1 | > 100 | > 100 | > 100 | > 100 | > 100 | > 100 | > 100 | > 100 | > 100 | – | – | – | – | – | – | – | –
COC(=O)C1=C(O)C(C(=O)OC)[C@]2(O)[C@H](C(=O)OC)[C@H]1C[C@@H](c1ccc([N+](=O)[O-])cc1)[C@H]2C(=O)OC (stereo not given in full) | 31 | – | > 100 | > 100 | 65.1 | 51.9 | 51.6 | > 100 | 58.4 | – | – | – | – | – | – | – | –
Cc1nc(-c2cc3cc(Cl)ccc3oc2=O)cc2c1c(=O)oc1ccc(Cl)cc12 | > 100 | > 100 | > 100 | > 100 | > 100 | > 100 | > 100 | – | > 100 | – | – | – | – | – | – | – | –
COC(=O)CCCC(=O)NC1=C(NCc2ccccc2)C(=O)c2ccccc2C1=O | > 100 | > 100 | > 100 | > 100 | – | – | > 100 | > 100 | > 100 | – | – | – | – | – | – | – | –
CS(=O)(=O)NC12CCC(c3ccccc31)c1ccccc12 | > 100 | > 100 | > 100 | > 100 | > 100 | > 100 | > 100 | > 100 | > 100 | – | – | – | – | – | – | – | –
CCC(CC(C)C)Nc1ccc(NC(CC)CC(C)C)cc1 (stereo not given) | – | > 100 | 37.8 | 30.2 | 29.9 | 16.3 | 30.6 | 38.2 | 30.1 | 25 | 10.7 | 15.6 | 15.3 | 4 | 16 | 15.4 | 15.6
O=C(/C=C/c1cccs1)c1ccccc1Cl | 27.8 | 35.5 | > 100 | 20.4 | > 65.7 | 34.5 | 26.4 | 28.9 | 40.9 | – | – | – | – | – | – | – | –
Cc1ccccc1OC(C)C(=O)NN1C(=O)CC(=O)N(c2ccccc2)C1=S (stereo not given) | > 100 | > 100 | > 100 | > 100 | > 100 | > 100 | > 100 | > 100 | > 100 | – | – | – | – | – | – | – | –
CC(C)(C)OC(=O)n1cc(C2CN(O)C(=O)C23CCC(=O)N3Cc2ccccc2)c2ccccc21 (stereo not given) | > 100 | > 100 | > 100 | > 100 | 62 | > 100 | > 100 | > 100 | > 100 | – | – | – | – | – | – | – | –
COc1ccccc1CNCCCCCCCCCCCCN1C(=O)c2ccc3c4c(ccc(c24)C1=O)C(=O)N(CCCCCCCCCCCCNCc1ccccc1OC)C3=O | – | – | – | – | > 50 | > 5 | > 50 | 46.9 | > 50 | – | – | – | > 50 | > 5 | > 50 | 2 | > 50
